Consider two compounds from patent EP0974362A1, “DRUGS CONTAINING ENZYME INHIBITORS AS THE ACTIVE INGREDIENT” (CHUGAI SEIYAKU KABUSHIKI KAISHA, priority 1997, dated 1998).

Series [1] deals with human glioma cell line A-172 lacking MTAP activity. The experiment in a line: cell growth, MTT method, 3 days incubation. In kind it is cell-based. The following applies: Fig. 4A. On the procedure:
(§1) Cell extracts were reacted with [8-^14C] MTA, a substrate for MTAP, and the reaction solutions were partially developed by thin-layer chromatography to visualize spots corresponding to [^14C] adenine produced by the action of MTAP in the presence of [8-^14C] […] The same experiment was performed as for Raji cells in Fig. 3 except that incubation was performed for 3 days. […] The same experiment was performed as for Raji cells in Fig. 3 except that incubation was performed for 3 days and that [^3H] thymidine uptake for 5 hours was assayed. […]
(§2) CCRF-CEM cells lacking MTAP activity and Raji cells having MTAP activity suspended in a modified MEM Zn^++ medium (GIBCO BRL) containing 10% dialyzed horse serum (GIBCO BRL) pretreated at 56°C for 30 minutes were plated on 96-well microplates at concentrations of 1.5 x 10^5 cells/ml and 5 x 10^4 cells/ml, respectively, and adenylosuccinate synthase inhibitors (hydantocidin-5'-monophosphate and hadacidin at a final concentration of 1 µM-1mM) were added to 100 µl/well in the presence or absence of a substrate for MTAP, MTA (final concentration 10 µM). After incubation in the presence of 5% CO2 at 37°C for 2 days, the survival cell number was counted by the MTT method (J. Immunol. Methods, 65, 55-63, 1983) (using Cell Titer 96® Aqueous Non-Radioactive Cell Proliferation Assay [Promega]) to assess effects on cell growth.

The subject of series [2] is human glioma cell line T98G having MTAP activity. Nature of the series: cell growth, MTT method, 3 days incubation. In kind it is cell-based. The following applies: Fig. 4B. The method, then:
as §1, §2
In general terms: Tetrazolium dyes change colour on reduction, which living cells bring about.

Series [3] relates to human non-small cell lung cancer cell line A549. The experiment in a line: cell growth, [3H] thymidine uptake. In kind it is cell-based. The following applies: 3 days incubation; [3H] thymidine uptake for 5 hours; Fig. 5A. The method, then: as §1, §2
In series [4] the test system is human pancreatic cancer cell line BxPC-3. The experiment in a line: cell growth, [3H] thymidine uptake. The class given is cell-based. The following applies: 3 days incubation; [3H] thymidine uptake for 5 hours; Fig. 5B. On the procedure: as §1, §2
Series [5] deals with CCRF-CEM cells lacking MTAP activity. Nature of the series: cell growth, MTT method. The class given is cell-based, human. The method, then:
as §2

For series [6], the system named is Raji cells having MTAP activity. Nature of the series: cell growth, MTT method. The class given is cell-based, human. On the procedure: as §2
Series [7] addresses T1, adenylosuccinate synthase (Oryctolagus cuniculus, UniProt G1TGN8).
T1 sequence (G1TGN8 with tags, fused parts or gaps): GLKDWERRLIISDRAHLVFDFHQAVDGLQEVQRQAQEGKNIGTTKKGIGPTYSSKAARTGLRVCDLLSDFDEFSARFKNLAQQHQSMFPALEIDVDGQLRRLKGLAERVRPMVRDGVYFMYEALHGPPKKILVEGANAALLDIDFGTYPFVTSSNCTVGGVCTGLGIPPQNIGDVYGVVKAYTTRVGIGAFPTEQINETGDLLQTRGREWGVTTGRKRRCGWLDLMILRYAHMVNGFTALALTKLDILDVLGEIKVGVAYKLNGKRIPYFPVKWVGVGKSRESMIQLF
The experiment in a line: adenylosuccinate synthase inhibition (change of absorbance at 285 nm with time). In kind it is biochemical. The text has this:
As existing adenylosuccinate synthase inhibitors, hydantocidin-5'-monophosphate and hadacidin were chosen and compared for their level of enzyme inhibitory activity. Hydantocidin-5'-monophosphate was synthesized by debenzylating an intermediate synthesized by the method of Mio et al. (Tetrahedron, 47, 2133-2144, 1991), [2R, 3R, 4R, 5S]-6-N-acetyl-2-benzyloxymethyl-3,4-isopropylidene-1-oxa-6,8-diazaspiro[4,4]nonane-7,9-dione (Compound 24) and then converting it into its diphenyl phosphate ester, followed by deacetonidation, deacetylation and dephenylation by catalytic reduction. Hadacidin was synthesized by the method of Jahngen-Rossomand (Synth. Commun. 12, 601-606, 1982). Adenylosuccinate synthase was purified from rabbit muscles by the method of Fischer et al. (Methods in Enzymol. LI, 207-213). Each inhibitor (hydantocidin-5'-monophosphate or hadacidin at a final concentration of 1µM-1mM) (10 µl) and a substrate solution (50 mM HEPES, pH 7.3, 1 mM MgCl2, 0.2 mM GTP, 0.2 mM IMP, 2.5 mM Asp [each final concentration]) (60 µl) were added to adenylosuccinate synthase (10 µl) added dropwise into a microspectroscopic cell, and mixed together, then the microspectroscopic cell was immediately set in a spectrophotometer BECKMAN DU650 (Beckman) to determine change of absorbance at 285 nm with time for a period of 2 to 5 minutes after the reaction was started.

[8] abbreviates: absence of MTA, compared with CCRF-CEM in presence of MTA, 2 days.

Where two headings read alike, the source gives them in different places.

As usually defined, the IC50 is the midpoint of a concentration-inhibition curve. As for `O=C1NC(=O)[C@@]2(N1)O[C@H](COP(=O)(O)O)[C@@H](O)[C@H]2O` [hydantocidin-5'-monophosphate], the toxicity result in series [1] and in series [2] was “showed selective toxicity” in each case. The growth inhibitory effects result in series [3] and in series [4] was “showed growth inhibitory effects” in each case. The concentration for half-maximal inhibition (IC50) in series [5] (Homo sapiens, CCRF-CEM, 48 h, read-out: IC50 (cytotoxicity)) worked out at 30 µM; in series [7] (read-out: IC50 (inhibited adenylosuccinate synthase activity); enzyme purified from rabbit muscles; 0.2 mM GTP, 0.2 mM IMP, 2.5 mM Asp, pH 7.3) it was 0.03 µM. Besides, the “level of cytotoxicity in the absence of MTA” value in series [5] (setting [8]) and in series [6] (setting [8]) was “comparable” in each case. For the same compound, the cytotoxicity entry in series [6] (MTA added (final concentration 10 µM), 2 days incubation) is listed as “did not show cytotoxicity”.
Turning to `O=CN(O)CC(=O)O` [hadacidin], in series [7] (enzyme purified from rabbit muscles; 0.2 mM GTP, 0.2 mM IMP, 2.5 mM Asp, pH 7.3; read-out: IC50 (inhibited adenylosuccinate synthase activity)), the half-maximal inhibitory concentration (IC50) was 10 µM.
